Results from publication PMC4838876, “Multivalent display of minimal Clostridium difficile glycan epitopes mimics antigenic properties of larger glycans” (Nature Communications, 2016).

Tests used:
[1] = target: mAb 10A1 (anti-PS-I IgG1); assay: Kinetic SPR of glycans binding to captured mAb 10A1; design: species or system mouse; conditions: mAb 10A1, PBS, 25 °C, mean (min;max) n=2
Description: (§1) Kinetic SPR experiments were performed to determine the binding strengths of the mAbs to PS-I glycans expressed as dissociation constants (KD)[8] (Fig. 5a). […] Overall, the SPR measurements (summarized in Table 1) confirmed results obtained by glycan microarray presented above.
(§2) Figure 5 KD values of anti-PS-I mAbs binding to 1 and 3 inferred by SPR. (a) mAbs were captured with an anti-mouse IgG antibody immobilized on the SPR sensor surface. Glycan antigens were passed over the surface to monitor changes in the response unit signals. (b,c) Representative sensorgrams showing reference-subtracted binding signals to 1 (b) and 3 (c). KD values were calculated by fitting the curves to a 1:1 Langmuir binding model (black overlaid curves) or with a steady-state affinity model (response units versus concentration plots). Indicated KD values are mean±s.e.m. of n=3 or mean with minimum and maximum values in parentheses of n=2 independent experiments. See Supplementary Figs 3–5 for details.
Binding analyses were carried out on a Biacore T100 instrument (GE Healthcare). […] The fitting quality was evaluated by investigating respective residual plots, χ^2 and s.e. values for on- and off-rates. […]

mAb 2C5 (anti-PS-I IgG1) = assay: Kinetic SPR of glycans binding to captured mAb 2C5; design: species or system mouse; conditions: for off-rate: mAb 2C5; for Kd: mAb 2C5, PBS, 25 °C
Description: as §1, §2
(§3) Binding analyses were carried out on a Biacore T100 instrument (GE Healthcare). CM5 sensor chips were functionalized with about 10,000 RUs of α-mouse IgG capture antibody, using the Mouse Antibody Capture Kit and the Amine Coupling Kit (GE Healthcare) according to the manufacturer's recommendations. A blank-immobilized flow cell was used as reference, to compensate for nonspecific binding of antibodies or oligosaccharides to the sensor chip surface. Kinetic measurements were performed with the Biacore T100 Control software using the ‘Kinetics' function. PBS was used as running buffer and all measurements were performed at 25 °C and a flow rate of 30 μl min^−1. About 500 RUs of mAbs were captured at a concentration of 50 μg ml^−1 diluted in PBS and oligosaccharides or OAAs (in PBS) at the indicated concentrations were passed through, using the standard parameters for association and dissociation times unless mentioned otherwise. Flow cells were regenerated with 10 mM glycine-HCl pH 1.7 for 30 s. Kinetic evaluation of binding responses was performed with the Biacore T100 Evaluation software, using reference-subtracted sensorgrams. Two different kinetic models, a 1:1 binding Langmuir model and a two-state reaction model, which assumes a conformational change in the antibody–analyte complex, were used to fit the data. The fitting quality was evaluated by investigating respective residual plots, χ^2 and s.e. values for on- and off-rates. Both models yielded similar good fittings. We chose the 1:1 binding model over the two-state reaction model to calculate on- and off-rates, as well as KD values, as this model makes fewer assumptions. When on-rates and/or off-rates were outside of the measurable ranges of the instrument, the steady-state affinity model was used instead to determine KD values. The 1:1 binding model was generally preferred over the steady-state affinity model in cases where both could be applied. In these cases, the two models yielded roughly similar KD values. Thermodynamic parameters were inferred by using the ‘Thermodynamics' function of the Biacore T100 Control software with the same experimental set-up described above. Temperatures from 13 to 37 °C were chosen. Values for ΔG, ΔH and ΔS were inferred by van't Hoff analysis. IM analysis was carried out by Ridgeview Diagnostics AB, Uppsala, Sweden.
Supplementary Figure 3 | KD values of mAb 2C5 to PS‐I oligosaccharide antigens inferred by SPR. […]

[2] = system: anti-PS-I mAbs 2C5, 10A1 and 10D6; assay: Kinetic SPR, summary over the three anti-PS-I mAbs; type: binding, mouse; conditions: for Kd: SPR, range over mAbs 2C5, 10A1, 10D6
Description: as §1
as §3, with “The 1:1 binding model was generally preferred over the steady-state affinity model in cases where both could be applied. In these cases, the two models yielded roughly similar KD values. Thermodynamic parameters were inferred by using the ‘Thermodynamics' function of the Biacore T100 Control software with the same experimental set-up described above. Temperatures from 13 to 37 °C were chosen. Values for ΔG, ΔH and ΔS were inferred by van't Hoff analysis. IM analysis was carried out by Ridgeview Diagnostics AB, Uppsala, Sweden.” left out

[3] = mean±s.e.m. n=3 or mean (min;max) n=2

C[C@@H]1O[C@@H](O[C@@H]2[C@@H](O)[C@H](O[C@H]3[C@H](O[C@@H]4O[C@@H](C)[C@H](O)[C@@H](O)[C@H]4O)[C@@H](O)[C@@H](O[C@H]4[C@@H](OCCCCCN)O[C@H](CO)[C@@H](O)[C@@H]4O)O[C@@H]3CO)O[C@H](CO)[C@H]2O)[C@H](O)[C@H](O)[C@H]1O [Compound 1]
Kd [1]: 0.245 µM
off-rate (mAb 2C5 (anti-PS-I IgG1)): 0.0019 s⁻¹
Kd (mAb 2C5 (anti-PS-I IgG1); [3]): 0.163 ± 0.023 µM
off-rate koff (mAb 2C5 (anti-PS-I IgG1); mAb 2C5, dissociation model fit, mean±s.e.m. n=3 or mean (min;max) n=2): 1.6±0.1 × 10^-3 s^-1
fold lower KD values than minimal glycan epitope 3 ([2]; KD of 1 compared with 3): about 100 fold
Kd [2]: 0.163 to 0.245 µM

C[C@@H]1O[C@@H](O[C@@H]2[C@@H](O)[C@H](OCCCCCN)O[C@H](CO)[C@H]2O)[C@H](O)[C@H](O)[C@H]1O [Compound 3, Rha-(1→3)-Glc]
Kd [1]: 5.9 µM
off-rate (mAb 2C5 (anti-PS-I IgG1)): 0.0016 s⁻¹
Kd (mAb 2C5 (anti-PS-I IgG1); [3]): 18 µM
Kd [2]: 5.9 to 37.5 µM
